For orientation: IC50 means the concentration that gives 50% inhibition.

The target in this assay is T1, Human Factor XIIa (Homo sapiens, UniProt P00748).
T1 construct: purchased Enzyme Research Laboratories
T1 sequence (P00748 373-615 limits assumed): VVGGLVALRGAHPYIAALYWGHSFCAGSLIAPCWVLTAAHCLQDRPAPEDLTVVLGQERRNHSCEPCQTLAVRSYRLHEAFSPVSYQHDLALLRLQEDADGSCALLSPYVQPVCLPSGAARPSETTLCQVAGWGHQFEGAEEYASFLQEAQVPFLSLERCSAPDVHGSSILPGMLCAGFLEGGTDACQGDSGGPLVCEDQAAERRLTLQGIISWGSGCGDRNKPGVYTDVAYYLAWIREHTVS
T1 sequence (P00748 20-372 partner limits assumed): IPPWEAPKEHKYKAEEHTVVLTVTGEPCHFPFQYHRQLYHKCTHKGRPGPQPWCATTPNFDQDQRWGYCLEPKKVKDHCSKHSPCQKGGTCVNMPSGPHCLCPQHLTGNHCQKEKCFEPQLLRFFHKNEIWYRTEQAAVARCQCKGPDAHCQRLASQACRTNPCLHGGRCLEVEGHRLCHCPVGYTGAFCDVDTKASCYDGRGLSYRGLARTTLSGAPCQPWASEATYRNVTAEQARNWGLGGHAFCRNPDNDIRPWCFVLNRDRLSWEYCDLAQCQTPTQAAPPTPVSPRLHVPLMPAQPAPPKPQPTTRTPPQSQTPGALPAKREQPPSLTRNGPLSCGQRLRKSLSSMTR
As to the kind of experiment: Determination of FXIIa inhibition (in vitro IC50 assay, fluorogenic substrate H-DPro-Phe-Arg-AFC). The format is biochemical. Conditions: human Factor XIIa, fluorogenic substrate H-DPro-Phe-Arg-AFC at Km concentration, 5 min, 25 °C; for IC50: class symbols, read-out: Human FXIIa IC50; for Human FXIIa inhibition (compounds that did not achieve 50% inhibition): class symbols H1/H2 for % inhibition at top concentration. How it is done:
In vitro inhibition of Factor XIIa was determined using an IC50 assay based on standard literature methods (see e.g Baeriswyl et al., ACS Chem. Biol., 2015, 10 (8) 1861; Bouckaert et al., European Journal of Medicinal Chemistry 110 (2016) 181). Human Factor XIIa (Enzyme Research Laboratories) was incubated at 25 °C with the fluorogenic substrate H-DPro-Phe-Arg-AFC (Peptide Protein Science) and various concentrations of the test compound. Protease activity was measured by monitoring the accumulation of liberated fluorescence from the substrate over 5 min at 25 °C. The linear rate of fluorescence increase per minute was expressed as percentage (%) activity. The Km for the cleavage of the substrate by FXIIa was determined by standard transformation of the Michaelis-Menten equation. The compound inhibitor assays were performed at substrate Km concentration. IC50 values were calculated as the concentration of inhibitor giving 50% inhibition (IC50) of the uninhibited enzyme activity (100%).

As for `Cn1ccc(OCC23CN(C(=O)NCC4(C)COC4)C(CNc4cccc5c(N)nccc45)(C2)C3)cc1=O` [Example 76, 1-(((1-aminoisoquinolin-5-yl)amino)methyl)-4-(((1-methyl-2-oxo-1,2-dihydropyridin-4-yl)oxy)methyl)-N-((3-methyloxetan-3-yl)methyl)-2-azabicyclo[2.1.1]hexane-2-carboxamide], the 50% inhibitory concentration (IC50) lay within 10 to 100 nM.

For `Cn1ccc(OCC23CN(C(=O)NC4(c5ccccc5)COC4)C(CNc4cccc5c(N)nccc45)(C2)C3)cc1=O` [Example 69, 1-(((1-aminoisoquinolin-5-yl)amino)methyl)-4-(((1-methyl-2-oxo-1,2-dihydropyridin-4-yl)oxy)methyl)-N-(3-phenyloxetan-3-yl)-2-azabicyclo [2.1.1]hexane-2-carboxamide], the IC50 lay within 1 to 10 nM.

As to `Nc1nccc2c(NCC34CC(COc5cc6n(c(=O)c5)CCC6)(CN3C(=O)NC3(c5ccccc5)CC3)C4)cccc12` [Example 59, 1-(((1-Aminoisoquinolin-5-yl)amino)methyl)-4-(((5-oxo-1,2,3,5-tetrahydroindolizin-7-yl)oxy)methyl)-N-(1-phenylcyclopropyl)-2-azabicyclo[2.1.1]hexane-2-carboxamide], the half-maximal inhibitory concentration (IC50) lay within 1 to 10 nM.

Consider `Cn1ccc(OCC23CN(C(=O)C4(Cc5ccccc5)CC4)C(CNc4cccc5c(N)nccc45)(C2)C3)cc1=O` [Example 8, 4-((1-(((1-aminoisoquinolin-5-yl)amino)methyl)-2-(1-benzylcyclopropane-1-carbonyl)-2-azabicyclo[2.1.1]hexan-4-yl)methoxy)-1-methylpyridin-2(1H)-one], for which the IC50 was 10 to 100 nM.

Take `Cn1ccc(OCC23CN(C(=O)NC4(C)COC4)C(CNc4cccc5c(N)nccc45)(C2)C3)cc1=O` [Example 79, 1-(((1-aminoisoquinolin-5-yl)amino)methyl)-4-(((1-methyl-2-oxo-1,2-dihydropyridin-4-yl)oxy)methyl)-N-(3-methyloxetan-3-yl)-2-azabicyclo[2.1.1]hexane-2-carboxamide]: the IC50 was in the range of 10 to 100 nM.

Turning to `Cc1cc(OCC23CN(C(=O)Nc4ccc5c(c4)OC(F)(F)O5)C(CNc4cccc5c(N)nccc45)(C2)C3)cc(=O)n1C` [Example 92, 1-(((1-aminoisoquinolin-5-yl)amino)methyl)-N-(2,2-difluorobenzo[d][1,3]dioxol-5-yl)-4-(((1,6-dimethyl-2-oxo-1,2-dihydropyridin-4-yl)oxy)methyl)-2-azabicyclo[2.1.1]hexane-2-carboxamide], the IC50 lay within 10 to 100 nM.

For the molecule `Cn1ccc(OCC23CN(C(=O)CCc4ccc5c(c4)CCO5)C(CNc4cccc5c(N)nccc45)(C2)C3)cc1=O` [Example 14, 4-((1-(((1-aminoisoquinolin-5-yl)amino)methyl)-2-(3-(2,3-dihydrobenzofuran-5-yl)propanoyl)-2-azabicyclo[2.1.1]hexan-4-yl)methoxy)-1-methylpyridin-2(1H)-one], the IC50 is 10 to 100 nM.

Take `Cn1ccc(OCC23CN(C(=O)N4CCCCC4)C(CNc4cccc5c(N)nccc45)(C2)C3)cc1=O` [Example 54, 4-((1-(((1-aminoisoquinolin-5-yl)amino)methyl)-2-(piperidine-1-carbonyl)-2-azabicyclo[2.1.1]hexan-4-yl)methoxy)-1-methylpyridin-2(1H)-one]: the IC50 lay within 10 to 100 nM.

For `Cn1ccc(OCC23CN(C(=O)N[C@@H]4C[C@H]4c4ccccc4)C(CNc4cccc5c(N)nccc45)(C2)C3)cc1=O` (racemic) [Example 60, rac-1-(((1-aminoisoquinolin-5-yl)amino)methyl)-4-(((1-methyl-2-oxo-1,2-dihydropyridin-4-yl)oxy)methyl)-N-((1R,2S)-2-phenylcyclopropyl)-2-azabicyclo[2.1.1]hexane-2-carboxamide], the half-inhibitory concentration (IC50) was 1 to 10 nM.

`Cn1ccc(OCC23CN(C(=O)C[C@@H]4CCOC4)C(CNc4cccc5c(N)nccc45)(C2)C3)cc1=O` [Example 11, (S)-4-((1-(((1-aminoisoquinolin-5-yl)amino)methyl)-2-(2-(tetrahydrofuran-3-yl)acetyl)-2-azabicyclo[2.1.1]hexan-4-yl)methoxy)-1-methylpyridin-2(1H)-one]: the IC50 lay in the range of 10 to 100 nM.

On to `Cc1cc(OCC23CN(C(=O)N4CCC5(CCOCC5)C4)C(CNc4cccc5c(N)nccc45)(C2)C3)cc(=O)n1C` [Example 83, 4-((1-(((1-aminoisoquinolin-5-yl)amino)methyl)-2-(8-oxa-2-azaspiro[4.5]decane-2-carbonyl)-2-azabicyclo[2.1.1]hexan-4-yl)methoxy)-1,6-dimethylpyridin-2(1H)-one], for which the IC50 lay within 10 to 100 nM.

Consider `Cn1ccc(OCC23CN(C(=O)C4(Oc5ccccc5)CC4)C(CNc4cccc5c(N)nccc45)(C2)C3)cc1=O` [Example 6, 4-((1-(((1-aminoisoquinolin-5-yl)amino)methyl)-2-(1-phenoxycyclopropane-1-carbonyl)-2-azabicyclo[2.1.1]hexan-4-yl)methoxy)-1-methylpyridin-2(1H)-one], for which the IC50 was in the range of 100 to 300 nM.

On to `Cn1ccc(OCC23CN(C(=O)CC4CCOCC4)C(CNc4cccc5c(N)nccc45)(C2)C3)cc1=O` [Example 9, 4-((1-(((1-aminoisoquinolin-5-yl)amino)methyl)-2-(2-(tetrahydro-2H-pyran-4-yl)acetyl)-2-azabicyclo[2.1.1]hexan-4-yl)methoxy)-1-methylpyridin-2(1H)-one], for which the IC50 fell in the range of 10 to 100 nM.

For the molecule `Cc1cc(OCC23CN(C(=O)NC4(c5ccccc5)CC4)C(CNc4cccnc4F)(C2)C3)cc(=O)n1C` [Example 67, 4-(((1,6-dimethyl-2-oxo-1,2-dihydropyridin-4-yl)oxy)methyl)-1-(((2-fluoropyridin-3-yl)amino)methyl)-N-(1-phenylcyclopropyl)-2-azabicyclo[2.1.1]hexane-2-carboxamide], the “Human FXIIa inhibition (compounds that did not achieve 50% inhibition)” value is “H2 (>20% inhibition @ 100 μM)”.

Turning to `Cn1ccc(OCC23CN(C(=O)NC4(c5ccccc5)CCOCC4)C(CNc4cccc5c(N)nccc45)(C2)C3)cc1=O` [Example 64, 1-(((1-aminoisoquinolin-5-yl)amino)methyl)-4-(((1-methyl-2-oxo-1,2-dihydropyridin-4-yl)oxy)methyl)-N-(4-phenyltetrahydro-2H-pyran-4-yl)-2-azabicyclo[2.1.1]hexane-2-carboxamide], the IC50 lay in the range of 10 to 100 nM.

`Cc1cc(OCC23CN(c4ccc(C5CC5)nc4)C(CNc4cccc5c(N)nccc45)(C2)C3)cc(=O)n1C` [Example 94, 4-((1-(((1-aminoisoquinolin-5-yl)amino)methyl)-2-(6-cyclopropylpyridin-3-yl)-2-azabicyclo[2.1.1]hexan-4-yl)methoxy)-1,6-dimethylpyridin-2(1H)-one]: the IC50 fell in the range of 10 to 100 nM.

As for `Cc1cc(OCC23CN(C(=O)NC4(c5ccccc5)CC4)C(CNc4cccnc4)(C2)C3)cc(=O)n1C` [Example 55, 4-(((1,6-dimethyl-2-oxo-1,2-dihydropyridin-4-yl)oxy)methyl)-N-(1-phenylcyclopropyl)-1-((pyridin-3-ylamino)methyl)-2-azabicyclo[2.1.1]hexane-2-carboxamide], the “Human FXIIa inhibition (compounds that did not achieve 50% inhibition)” value was “H2 (>20% inhibition @ 100 μM)”.

As to `Cc1cc(OCC23CN(C(=O)N(C)[C@@H]4CCOC4)C(CNc4cccc5c(N)nccc45)(C2)C3)cc(=O)n1C` [Example 40, (R)-1-(((1-aminoisoquinolin-5-yl)amino)methyl)-4-(((1,6-dimethyl-2-oxo-1,2-dihydropyridin-4-yl)oxy)methyl)-N-methyl-N-(tetrahydrofuran-3-yl)-2-azabicyclo [2.1.1]hexane-2-carboxamide], the 50% inhibitory concentration (IC50) fell in the range of 10 to 100 nM.

For `Cc1cc(OCC23CN(C(=O)CC45CC(C4)C5)C(CNc4cccc5c(N)nccc45)(C2)C3)cc(=O)n1C` [Example 26, 4-((1-(((1-aminoisoquinolin-5-yl)amino)methyl)-2-(2-(bicyclo[1.1.1]pentan-1-yl)acetyl)-2-azabicyclo[2.1.1]hexan-4-yl)methoxy)-1,6-dimethylpyridin-2(1H)-one], the concentration for half-maximal inhibition (IC50) lay within 10 to 100 nM.

In the case of `Cn1ccc(OCC23CN(C(=O)N4CCc5ccccc54)C(CNc4cccc5c(N)nccc45)(C2)C3)cc1=O` [Example 34, 4-((1-(((1-aminoisoquinolin-5-yl)amino)methyl)-2-(indoline-1-carbonyl)-2-azabicyclo[2.1.1]hexan-4-yl)methoxy)-1-methylpyridin-2(1H)-one], the IC50 lay within 10 to 100 nM.

These data come from patent US20260347347A1, “2-AZA-AND 2-OXABICYCLO[2.1.1]HEXANE DERIVATIVES AS FACTOR XIIA ENZYME INHIBITORS” (KALVISTA PHARMACEUTICALS LIMITED, priority 2022, published 2026).
